Assay results from paper PMC5218480 (PLoS ONE, 2017).

Tested on: MV-4-11 cells
Experiment: Gene expression microarray analysis (Affymetrix PrimeView) and GSEA
Format: cell-based, human
Parameters: RFU PODN (11730768_x_at) / Fold change /veh PODN (11730768_x_at) / RFU LINC00158 (11744669_a_at) / Fold change /veh LINC00158 (11744669_a_at) / RFU DUSP10 (11751237_a_at) / Fold change /veh DUSP10 (11751237_a_at) / RFU ID3 (11757404_x_at) / Fold change /veh ID3 (11757404_x_at) / RFU PLEKHG5 (11737974_s_at) / Fold change /veh PLEKHG5 (11737974_s_at) / RFU LRRC4B (11730491_at) / Fold change /veh LRRC4B (11730491_at) / RFU GIMAP4 (11747438_a_at) / Fold change /veh GIMAP4 (11747438_a_at) / RFU KRT8 (11758183_x_at) / Fold change /veh KRT8 (11758183_x_at) / RFU CNN1 (11734310_a_at) / Fold change /veh CNN1 (11734310_a_at) / RFU VPS37D (11726825_at) / Fold change /veh VPS37D (11726825_at) / RFU C10orf10 (11716522_x_at) / Fold change /veh C10orf10 (11716522_x_at) / RFU KIR2DL2 /// KIR2DL4 /// KIR2DL5A /// KIR2DL5B /// KIR2DS1 /// KIR2DS2 /// KIR2DS3 /// KIR2DS4 /// KIR3DL3 /// KIR3DL3 /// KIR3DS1 (11738374_at) / Fold change /veh KIR2DL2 /// KIR2DL4 /// KIR2DL5A /// KIR2DL5B /// KIR2DS1 /// KIR2DS2 /// KIR2DS3 /// KIR2DS4 /// KIR3DL3 /// KIR3DL3 /// KIR3DS1 (11738374_at) / RFU C1QL1 (11718748_at) / Fold change /veh C1QL1 (11718748_at) / RFU TMPRSS4 (11747572_a_at) / Fold change /veh TMPRSS4 (11747572_a_at) / RFU HAMP (11756126_x_at) / Fold change /veh HAMP (11756126_x_at) / RFU RNFT2 (11725882_a_at) / Fold change /veh RNFT2 (11725882_a_at) / RFU NR4A2 (11747474_a_at) / Fold change /veh NR4A2 (11747474_a_at) / RFU ABCC12 (11746883_a_at) / Fold change /veh ABCC12 (11746883_a_at) / RFU TMEM136 (11760407_x_at) / Fold change /veh TMEM136 (11760407_x_at) / RFU CLDN22 /// WWC2 (11732394_at) / Fold change /veh CLDN22 /// WWC2 (11732394_at) / RFU HLA-DPB1 (11760878_x_at) / Fold change /veh HLA-DPB1 (11760878_x_at) / RFU SPINT1 (11716480_a_at) / Fold change /veh SPINT1 (11716480_a_at) / RFU GAP43 (11754022_s_at) / Fold change /veh GAP43 (11754022_s_at) / RFU A4GNT (11735810_at) / Fold change /veh A4GNT (11735810_at) / RFU PRB3 (11715151_x_at) / Fold change /veh PRB3 (11715151_x_at) / RFU TUBB4B (11761932_at) / Fold change /veh TUBB4B (11761932_at) / RFU CAPN14 (11732068_a_at) / Fold change /veh CAPN14 (11732068_a_at) / RFU TMCC2 (11721928_a_at) / Fold change /veh TMCC2 (11721928_a_at) / RFU IRGQ (11745062_a_at) / Fold change /veh IRGQ (11745062_a_at) / RFU FAM174B (11720279_a_at) / Fold change /veh FAM174B (11720279_a_at) / RFU TMPRSS4 (11748680_a_at) / Fold change /veh TMPRSS4 (11748680_a_at) / RFU FAM212B (11763350_a_at) / Fold change /veh FAM212B (11763350_a_at) / RFU PLEKHG5 (11743358_a_at) / Fold change /veh PLEKHG5 (11743358_a_at) / RFU ZSCAN30 (11745921_a_at) / Fold change /veh ZSCAN30 (11745921_a_at) / RFU CMKLR1 (11741424_a_at) / Fold change /veh CMKLR1 (11741424_a_at) / RFU LOC101060620 /// MAPK8IP1 (11723275_at) / Fold change /veh LOC101060620 /// MAPK8IP1 (11723275_at) / RFU SPTSSB (11747773_x_at) / Fold change /veh SPTSSB (11747773_x_at) / RFU PRSS12 (11739890_at) / Fold change /veh PRSS12 (11739890_at) / RFU BIN1 (11741810_x_at) / Fold change /veh BIN1 (11741810_x_at) / RFU WNT11 (11732464_a_at) / Fold change /veh WNT11 (11732464_a_at) / RFU C10orf10 (11716521_a_at) / Fold change /veh C10orf10 (11716521_a_at) / RFU C5orf56 (11738089_at) / Fold change /veh C5orf56 (11738089_at) / RFU CYB561 (11721691_x_at) / Fold change /veh CYB561 (11721691_x_at) / RFU ANKRD19P (11752326_a_at) / Fold change /veh ANKRD19P (11752326_a_at) / RFU OR2T12 /// OR2T33 /// OR2T8 (11738714_s_at) / Fold change /veh OR2T12 /// OR2T33 /// OR2T8 (11738714_s_at) / RFU VCAN (11748164_a_at) / Fold change /veh VCAN (11748164_a_at) / RFU JSRP1 (11732532_at) / Fold change /veh JSRP1 (11732532_at) / RFU KRTAP10-11 (11738290_x_at) / Fold change /veh KRTAP10-11 (11738290_x_at) / RFU MYO3A (11730013_a_at) / Fold change /veh MYO3A (11730013_a_at) / RFU EBF3 (11725865_a_at) / Fold change /veh EBF3 (11725865_a_at) / RFU CAMK2N1 (11719241_x_at) / Fold change /veh CAMK2N1 (11719241_x_at) / RFU C5orf56 (11738088_a_at) / Fold change /veh C5orf56 (11738088_a_at) / RFU OLFML3 (11715873_a_at) / Fold change /veh OLFML3 (11715873_a_at) / RFU LOC100653217 /// NTM (11731650_a_at) / Fold change /veh LOC100653217 /// NTM (11731650_a_at) / RFU MAPK11 (11762145_a_at) / Fold change /veh MAPK11 (11762145_a_at) / RFU FIZ1 (11724087_x_at) / Fold change /veh FIZ1 (11724087_x_at) / RFU OASL (11726364_x_at) / Fold change /veh OASL (11726364_x_at) / RFU SOX15 (11748057_x_at) / Fold change /veh SOX15 (11748057_x_at) / RFU CD79A (11719716_a_at) / Fold change /veh CD79A (11719716_a_at) / RFU HIST1H1D (11736915_at) / Fold change /veh HIST1H1D (11736915_at) / RFU CASKIN2 (11723855_a_at) / Fold change /veh CASKIN2 (11723855_a_at) / RFU LOC730098 (11760151_x_at) / Fold change /veh LOC730098 (11760151_x_at) / RFU OR4N2 (11742367_at) / Fold change /veh OR4N2 (11742367_at) / RFU PRRT2 (11749266_a_at) / Fold change /veh PRRT2 (11749266_a_at) / RFU SNX32 (11753110_a_at) / Fold change /veh SNX32 (11753110_a_at) / RFU CDHR5 (11726645_a_at) / Fold change /veh CDHR5 (11726645_a_at) / RFU RCAN1 (11760418_a_at) / Fold change /veh RCAN1 (11760418_a_at) / RFU FAM167A (11723789_a_at) / Fold change /veh FAM167A (11723789_a_at) / RFU FAM26E (11764081_at) / Fold change /veh FAM26E (11764081_at) / RFU ISYNA1 (11749810_s_at) / Fold change /veh ISYNA1 (11749810_s_at) / RFU ACY1 (11761880_at) / Fold change /veh ACY1 (11761880_at) / RFU 11764098_at / Fold change /veh 11764098_at / RFU SAMD14 (11745864_x_at) / Fold change /veh SAMD14 (11745864_x_at) / RFU NPB (11741838_a_at) / Fold change /veh NPB (11741838_a_at) / RFU TMPRSS6 (11731388_a_at) / Fold change /veh TMPRSS6 (11731388_a_at) / RFU KRTAP10-2 (11738614_at) / Fold change /veh KRTAP10-2 (11738614_at) / RFU ARHGAP8 /// PRR5-ARHGAP8 (11727945_x_at) / Fold change /veh ARHGAP8 /// PRR5-ARHGAP8 (11727945_x_at) / RFU KRTAP5-7 /// NADSYN1 (11734609_at) / Fold change /veh KRTAP5-7 /// NADSYN1 (11734609_at) / RFU RASL12 (11751679_a_at) / Fold change /veh RASL12 (11751679_a_at) / RFU CDKN2B (11736163_a_at) / Fold change /veh CDKN2B (11736163_a_at) / RFU PRF1 (11729649_at) / Fold change /veh PRF1 (11729649_at) / RFU, ZNF638 /// ZNF638-IT1 / Fold change vs veh, ZNF638 /// ZNF638-IT1 / RFU, PANK3 / Fold change vs veh, PANK3 / RFU, SH3YL1 / Fold change vs veh, SH3YL1 / RFU, ZEB2 / Fold change vs veh, ZEB2 / RFU, NRIP1 / Fold change vs veh, NRIP1 / RFU, PTTG1IP / Fold change vs veh, PTTG1IP / RFU, CAPN2 / Fold change vs veh, CAPN2 / RFU, MED14 / Fold change vs veh, MED14 / RFU, SNORA58 / Fold change vs veh, SNORA58 / RFU, C1orf63 / Fold change vs veh, C1orf63 / RFU, LRRFIP1 / Fold change vs veh, LRRFIP1 / RFU, NDUFAF7 / Fold change vs veh, NDUFAF7 / RFU, SLC12A2 / Fold change vs veh, SLC12A2 / RFU, IBTK / Fold change vs veh, IBTK / RFU, ESF1 / Fold change vs veh, ESF1 / Fold change vs veh, TMEM50B / RFU, TAOK1 / Fold change vs veh, TAOK1 / RFU, ACBD3 / Fold change vs veh, ACBD3 / RFU, TMA16 / Fold change vs veh, TMA16 / RFU, RWDD3 / Fold change vs veh, RWDD3 / RFU, BCAT1 / Fold change vs veh, BCAT1 / RFU, EDEM3 / Fold change vs veh, EDEM3 / RFU, TMEM33 / Fold change vs veh, TMEM33 / RFU, WDR75 / Fold change vs veh, WDR75 / RFU, AHCTF1 / Fold change vs veh, AHCTF1 / RFU, TFRC / Fold change vs veh, TFRC / RFU, ZDHHC17 / Fold change vs veh, ZDHHC17 / RFU, NOM1 / Fold change vs veh, NOM1 / RFU, ARL8B / Fold change vs veh, ARL8B / RFU, ZBTB11 / Fold change vs veh, ZBTB11 / RFU, TAMM41 / Fold change vs veh, TAMM41 / RFU, KIAA1704 /// LOC100996395 / Fold change vs veh, KIAA1704 /// LOC100996395 / RFU, ING1 / Fold change vs veh, ING1 / RFU, TRMT61B / Fold change vs veh, TRMT61B / RFU, FUBP3 / Fold change vs veh, FUBP3 / RFU, TP53 / Fold change vs veh, TP53 / RFU, TNKS2 / Fold change vs veh, TNKS2 / RFU, ZFP14 / Fold change vs veh, ZFP14 / RFU, ACTR2 / Fold change vs veh, ACTR2 / RFU, PPP3R1 / Fold change vs veh, PPP3R1 / RFU, PIK3R1 / Fold change vs veh, PIK3R1 / RFU, HNRNPA1 / Fold change vs veh, HNRNPA1 / RFU, RNF170 / Fold change vs veh, RNF170 / RFU, ZNF28 / Fold change vs veh, ZNF28 / RFU, RNGTT / Fold change vs veh, RNGTT / RFU, OGT / Fold change vs veh, OGT / RFU, BRD1 / Fold change vs veh, BRD1 / RFU, MARS / Fold change vs veh, MARS / RFU, ZNF655 / Fold change vs veh, ZNF655 / RFU, FAHD1 / Fold change vs veh, FAHD1 / RFU, BDP1 / Fold change vs veh, BDP1 / RFU, LRRCC1 / Fold change vs veh, LRRCC1 / RFU, ARID1A / Fold change vs veh, ARID1A / RFU, ZNF146 / Fold change vs veh, ZNF146 / RFU, ZNF330 / Fold change vs veh, ZNF330 / RFU, GPN3 / Fold change vs veh, GPN3 / RFU, C9orf123 / Fold change vs veh, C9orf123 / RFU, N4BP2L2 / Fold change vs veh, N4BP2L2 / RFU, ARFIP1 / Fold change vs veh, ARFIP1 / RFU, FAM179B / Fold change vs veh, FAM179B / RFU, BCL10 / Fold change vs veh, BCL10 / RFU, UHRF1BP1L / Fold change vs veh, UHRF1BP1L / RFU, BET1 / Fold change vs veh, BET1 / RFU, CNOT2 / Fold change vs veh, CNOT2 / RFU, ZNF268 / Fold change vs veh, ZNF268 / Fold change vs veh, ZNF507 / RFU, DGCR2 / Fold change vs veh, DGCR2 / RFU, WDSUB1 / Fold change vs veh, WDSUB1 / Fold change vs veh, HSP90B1 /// MIR3652 / RFU, ADSS / Fold change vs veh, ADSS / RFU, GK / Fold change vs veh, GK / RFU, ZNF148 / Fold change vs veh, ZNF148 / RFU, TAF9 / Fold change vs veh, TAF9 / RFU, SLC1A5 / Fold change vs veh, SLC1A5 / RFU, SLMO2 / Fold change vs veh, SLMO2 / RFU, ABCC4 / Fold change vs veh, ABCC4 / RFU, LOC101060439 /// RAP1B / Fold change vs veh, LOC101060439 /// RAP1B / RFU, RFX7 / Fold change vs veh, RFX7 / RFU, GTPBP10 / Fold change vs veh, GTPBP10 / RFU, CNEP1R1 / Fold change vs veh, CNEP1R1 / RFU, BIVM-ERCC5 /// ERCC5 / Fold change vs veh, BIVM-ERCC5 /// ERCC5 / RFU, ILF3 / Fold change vs veh, ILF3 / RFU 11762660_at / Fold change /veh 11762660_at / RFU VCAN (11757783_s_at) / Fold change /veh VCAN (11757783_s_at) / RFU DDX43 (11728927_at) / Fold change /veh DDX43 (11728927_at) / RFU KRT8 (11758188_x_at) / Fold change /veh KRT8 (11758188_x_at) / RFU NKD1 (11759106_at) / Fold change /veh NKD1 (11759106_at) / RFU SRD5A1 (11742802_a_at) / Fold change /veh SRD5A1 (11742802_a_at) / RFU TPSAB1 /// TPSB2 (11721975_s_at) / Fold change /veh TPSAB1 /// TPSB2 (11721975_s_at) / RFU GSTM3 (11746129_a_at) / Fold change /veh GSTM3 (11746129_a_at) / RFU IL23R (11737362_x_at) / Fold change /veh IL23R (11737362_x_at) / RFU TMEM51 (11727254_a_at) / Fold change /veh TMEM51 (11727254_a_at) / RFU PIWIL2 (11732686_x_at) / Fold change /veh PIWIL2 (11732686_x_at) / RFU ORM1 (11744905_x_at) / Fold change /veh ORM1 (11744905_x_at) / RFU CCDC152 (11743942_at) / Fold change /veh CCDC152 (11743942_at) / RFU ECM1 (11717891_a_at) / Fold change /veh ECM1 (11717891_a_at) / RFU IL23R (11748794_a_at) / Fold change /veh IL23R (11748794_a_at) / RFU TNFAIP8L3 (11732012_x_at) / Fold change /veh TNFAIP8L3 (11732012_x_at) / RFU MBOAT4 (11741988_at) / Fold change /veh MBOAT4 (11741988_at) / RFU 11764193_at / Fold change /veh 11764193_at / RFU TMEM53 (11763286_at) / Fold change /veh TMEM53 (11763286_at) / RFU MAGEB2 (11727129_at) / Fold change /veh MAGEB2 (11727129_at) / RFU TMEM200A (11744735_a_at) / Fold change /veh TMEM200A (11744735_a_at) / RFU CCDC152 (11751479_a_at) / Fold change /veh CCDC152 (11751479_a_at) / RFU FAM211A (11726209_a_at) / Fold change /veh FAM211A (11726209_a_at) / RFU RGS16 (11746705_a_at) / Fold change /veh RGS16 (11746705_a_at) / RFU VCAN (11755009_s_at) / Fold change /veh VCAN (11755009_s_at) / RFU RHOB (11743442_s_at) / Fold change /veh RHOB (11743442_s_at) / RFU RGS16 (11720943_a_at) / Fold change /veh RGS16 (11720943_a_at) / RFU RGS16 (11720944_at) / Fold change /veh RGS16 (11720944_at) / RFU, VPS4B / Fold change vs veh, VPS4B / RFU, CREB1 / Fold change vs veh, CREB1 / RFU, DNAJC13 / Fold change vs veh, DNAJC13 / RFU, GNAQ / Fold change vs veh, GNAQ / RFU, CDK5R1 / Fold change vs veh, CDK5R1 / RFU, ZRANB3 / Fold change vs veh, ZRANB3 / RFU, CUL4A / Fold change vs veh, CUL4A / RFU, CCNY / Fold change vs veh, CCNY / RFU, UFL1 / Fold change vs veh, UFL1 / RFU, COG3 / Fold change vs veh, COG3 / RFU, DIAPH2 / Fold change vs veh, DIAPH2 / RFU, SKA2 / Fold change vs veh, SKA2 / RFU, AFF3 / Fold change vs veh, AFF3 / RFU, LMF1 / Fold change vs veh, LMF1 / RFU, IPO11 / Fold change vs veh, IPO11 / RFU, DFFB / Fold change vs veh, DFFB / RFU, FOXP1 / Fold change vs veh, FOXP1 / RFU, CARD8 / Fold change vs veh, CARD8 / RFU, STRN3 / Fold change vs veh, STRN3 / RFU, ADK / Fold change vs veh, ADK / RFU, RASSF2 / Fold change vs veh, RASSF2 / RFU, WIPF1 / Fold change vs veh, WIPF1 / RFU, LARP1B / Fold change vs veh, LARP1B / RFU, RASA1 / Fold change vs veh, RASA1 / RFU, RB1 / Fold change vs veh, RB1 / RFU, PPFIA1 / Fold change vs veh, PPFIA1 / RFU, MAT2A / Fold change vs veh, MAT2A / RFU, CCT5 / Fold change vs veh, CCT5 / RFU, WDR92 / Fold change vs veh, WDR92 / RFU, CUX1 / Fold change vs veh, CUX1 / RFU, TTC7A / Fold change vs veh, TTC7A / RFU, TMEM135 / Fold change vs veh, TMEM135 / RFU, DEPTOR / Fold change vs veh, DEPTOR / RFU, CPM / Fold change vs veh, CPM / RFU, DNAJB6 / Fold change vs veh, DNAJB6 / RFU, CACNA2D3 / Fold change vs veh, CACNA2D3 / RFU, DTX4 / Fold change vs veh, DTX4 / RFU, TFCP2 / Fold change vs veh, TFCP2 / RFU, GMCL1 /// GMCL1P1 / Fold change vs veh, GMCL1 /// GMCL1P1 / RFU, AEBP2 / Fold change vs veh, AEBP2 / RFU, SNHG1 /// SNORD22 /// SNORD25 /// SNORD26 /// SNORD27 /// SNORD28 /// SNORD29 /// SNORD31 / Fold change vs veh, SNHG1 /// SNORD22 /// SNORD25 /// SNORD26 /// SNORD27 /// SNORD28 /// SNORD29 /// SNORD31 / Fold change (Aza/veh), C12orf56 (ProbeSet 11735607_a_at) / Fold change (ACY-1035/veh), C12orf56 (ProbeSet 11735607_a_at) / Fold change (Aza/veh), FGFR1OP (ProbeSet 11751329_s_at) / Fold change (ACY-1035/veh), FGFR1OP (ProbeSet 11751329_s_at) / Fold change (Aza/veh), VPS36 (ProbeSet 11739960_a_at) / Fold change (ACY-1035/veh), VPS36 (ProbeSet 11739960_a_at) / RFU SYPL1 (11715823_x_at) / Fold change /veh SYPL1 (11715823_x_at) / RFU IGFBP7 (11715501_s_at) / Fold change /veh IGFBP7 (11715501_s_at) / RFU REEP3 (11722064_at) / Fold change /veh REEP3 (11722064_at) / RFU IGLL1 (11728026_x_at) / Fold change /veh IGLL1 (11728026_x_at): dose or concentration left out as unconfirmed
Details: MV-4-11 cells, 48 hours

Nc1ncn([C@@H]2O[C@H](CO)[C@@H](O)[C@H]2O)c(=O)n1 [azacitidine]
Fold change /veh VPS37D (11726825_at): 1.12
